# Assays:
# [1] = molecular target: Muscarinic acetylcholine receptor M5 (Homo sapiens) (UniProt P08912); test: Displacement of [3H]N-Methylscopolamine from full length human recombinant Muscarinic M5 receptor expressed in CHOK1 cells at 10 uM measured after 120 mins by radiometric scintillation analysis relative to control; type: cell-based; details: CHO-K1
# AMPK alpha2/beta1/gamma1 = AMPK alpha2/beta1/gamma1 (Homo sapiens, UniProt P54619+P54646+Q9Y478); test: Inhibition of recombinant full length GST/His-tagged human AMPK alpha2/beta1/gamma1 expressed in baculovirus expression system using Ser/Thr-23 peptide as substrate incubated for 60 mins in presence of ATP by Z'-LYTE assay
# [2] = molecular target: Mitogen-activated protein kinase 10 (Homo sapiens, UniProt P53779); test: Inhibition of recombinant full length human GST-tagged JNK3 expressed in baculovirus expression system using serine/threonine-4 peptide as substrate incubated for 60 mins in presence of ATP by Z'-LYTE assay
# Sequence of Mitogen-activated protein kinase 10 (P53779 whole entry): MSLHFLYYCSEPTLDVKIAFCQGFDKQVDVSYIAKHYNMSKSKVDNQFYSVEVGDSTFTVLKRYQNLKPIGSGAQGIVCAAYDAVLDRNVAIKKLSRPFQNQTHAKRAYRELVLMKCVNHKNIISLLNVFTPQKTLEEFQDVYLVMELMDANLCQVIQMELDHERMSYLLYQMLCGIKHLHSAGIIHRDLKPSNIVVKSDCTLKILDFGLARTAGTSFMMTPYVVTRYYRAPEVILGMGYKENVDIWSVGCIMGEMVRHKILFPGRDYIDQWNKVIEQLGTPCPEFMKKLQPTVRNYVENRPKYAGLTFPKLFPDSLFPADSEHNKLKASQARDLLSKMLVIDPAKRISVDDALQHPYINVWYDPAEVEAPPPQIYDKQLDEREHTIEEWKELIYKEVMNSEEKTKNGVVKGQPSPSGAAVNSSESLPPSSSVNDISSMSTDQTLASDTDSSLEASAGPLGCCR
# [3] = molecular target: Nociceptin receptor (Homo sapiens) (UniProt P41146); test: Displacement of [3H]nociceptin from full length human recombinant ORL1 receptor expressed in HEK293 cells at 10 uM measured after 60 mins by radiometric scintillation analysis relative to control; type: cell-based
# [4] = molecular target: Protein kinase C theta type (Homo sapiens, UniProt Q04759); test: Inhibition of recombinant full length human His-tagged PKCtheta expressed in baculovirus expression system using serine/threonine-7 peptide as substrate incubated for 60 mins in presence of ATP by Z'-LYTE assay
# [5] = molecular target: Tyrosine-protein kinase receptor TYRO3 (Homo sapiens, UniProt Q06418); test: Inhibition of recombinant human GST-tagged RSE catalytic domain (451 to 890 residues) expressed in baculovirus expression system using tyrosine-2 peptide as substrate incubated for 60 mins in presence of ATP by Z'-LYTE assay
# [6] = molecular target: Beta-3 adrenergic receptor (Homo sapiens) (UniProt P13945); test: Displacement of [125I]cyanopindolol from full-length recombinant human beta3 adrenergic receptor expressed in HEK293 cell membranes at 10 uM measured after 90 mins by scintillation counting method relative to control
# [7] = molecular target: Phosphorylase b kinase gamma catalytic chain, skeletal muscle/heart isoform (Homo sapiens, UniProt Q16816); test: Inhibition of recombinant full length human GST-tagged PHKG1 expressed in baculovirus expression system using serine/threonine-7 peptide as substrate incubated for 60 mins in presence of ATP by Z'-LYTE assay
# [8] = molecular target: Calcium/calmodulin-dependent protein kinase type IV (Homo sapiens, UniProt Q16566); test: Inhibition of recombinant full length human full length GST-tagged CAMK4 expressed in Escherichia coli expression system using serine/threonine-13 peptide as substrate incubated for 60 mins in presence of ATP by Z'-LYTE assay
# [9] = molecular target: Tyrosine-protein kinase TXK (Homo sapiens, UniProt P42681); test: Inhibition of recombinant human GST-tagged TXK catalytic domain (260 to 527 residues) expressed in baculovirus expression system using tyrosine-6 peptide as substrate incubated for 60 mins in presence of ATP by Z'-LYTE assay
# Sequence of Tyrosine-protein kinase TXK (P42681 whole entry, the tested form may be a part): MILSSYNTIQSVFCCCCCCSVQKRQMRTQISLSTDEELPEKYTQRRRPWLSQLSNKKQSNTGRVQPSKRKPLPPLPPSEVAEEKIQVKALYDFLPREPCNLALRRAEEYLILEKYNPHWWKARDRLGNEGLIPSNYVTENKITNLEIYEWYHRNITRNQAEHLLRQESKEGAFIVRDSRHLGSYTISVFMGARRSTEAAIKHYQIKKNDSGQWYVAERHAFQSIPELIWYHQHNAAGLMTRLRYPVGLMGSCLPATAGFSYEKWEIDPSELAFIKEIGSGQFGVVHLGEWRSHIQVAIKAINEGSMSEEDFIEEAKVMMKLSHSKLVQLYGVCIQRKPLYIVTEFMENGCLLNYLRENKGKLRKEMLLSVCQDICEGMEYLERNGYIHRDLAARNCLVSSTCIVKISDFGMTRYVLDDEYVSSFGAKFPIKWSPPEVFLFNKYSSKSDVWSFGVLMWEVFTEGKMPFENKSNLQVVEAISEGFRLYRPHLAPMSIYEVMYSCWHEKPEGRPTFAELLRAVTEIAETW
# [10] = molecular target: C-C chemokine receptor type 1 (Homo sapiens) (UniProt P32246); test: Displacement of [125I]MIP-1alpha from recombinant full length human recombinant CCR1 expressed in Chem2 cells at 10 uM measured after 3 hrs by radiometric scintillation analysis relative to control; type: cell-based
# Sequence of C-C chemokine receptor type 1 (Homo sapiens) (P32246 whole entry): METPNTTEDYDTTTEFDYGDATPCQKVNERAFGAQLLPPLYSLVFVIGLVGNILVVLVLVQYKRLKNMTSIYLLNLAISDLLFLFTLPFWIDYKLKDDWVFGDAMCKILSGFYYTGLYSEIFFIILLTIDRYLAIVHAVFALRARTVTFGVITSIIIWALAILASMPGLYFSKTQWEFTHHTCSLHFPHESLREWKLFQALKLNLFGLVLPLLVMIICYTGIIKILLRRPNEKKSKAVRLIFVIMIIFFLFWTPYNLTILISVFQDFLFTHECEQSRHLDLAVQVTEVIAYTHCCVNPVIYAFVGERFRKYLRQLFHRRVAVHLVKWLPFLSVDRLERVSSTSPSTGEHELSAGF
# [11] = molecular target: Mu-type opioid receptor (Homo sapiens) (UniProt P35372); test: Displacement of [3H]diprenorphine from full length human recombinant Mu opioid receptor expressed in CHO-K1 cells at 10 uM measured after 60 mins by radiometric scintillation analysis relative to control; type: cell-based
# Sequence of Mu-type opioid receptor (Homo sapiens) (P35372 whole entry): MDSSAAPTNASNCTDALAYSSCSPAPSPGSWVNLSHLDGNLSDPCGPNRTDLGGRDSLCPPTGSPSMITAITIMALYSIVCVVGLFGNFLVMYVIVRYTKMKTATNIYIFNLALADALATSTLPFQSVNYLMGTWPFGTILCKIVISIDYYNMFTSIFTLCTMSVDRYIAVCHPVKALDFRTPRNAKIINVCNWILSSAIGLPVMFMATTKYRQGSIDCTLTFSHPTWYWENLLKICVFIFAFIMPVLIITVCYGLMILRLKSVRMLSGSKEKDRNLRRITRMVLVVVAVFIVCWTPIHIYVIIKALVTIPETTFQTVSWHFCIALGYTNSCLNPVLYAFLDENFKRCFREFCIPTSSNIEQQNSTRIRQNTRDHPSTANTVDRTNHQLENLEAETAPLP
# [12] = Unbound clearance in dog at 0.5 mg/kg, iv or 1 mg/kg, po; type: ADME, organism-based, Canis lupus familiaris; details: in vivo
# Misshapen-like kinase 1 = Misshapen-like kinase 1 (Homo sapiens, UniProt Q8N4C8); test: Inhibition of recombinant human MINK1 catalytic domain expressed in baculovirus expression system using Ser/Thr 07 peptide as substrate after 1 hr in presence of ATP by Z'LYTE assay
# [13] = molecular target: Megakaryocyte-associated tyrosine-protein kinase (Homo sapiens, UniProt P42679); test: Inhibition of recombinant full length human His-tagged MATK expressed in Escherichia coli using tyr-01 peptide as substrate incubated for 60 mins in presence of ATP by Z'-LYTE assay
# [14] = molecular target: Serine/threonine-protein kinase Sgk2 (Homo sapiens, UniProt Q9HBY8); test: Inhibition of recombinant human GST-tagged SGK2 catalytic domain (54 to 427 residues) expressed in baculovirus expression system using serine/threonine-6 peptide as substrate incubated for 60 mins in presence of ATP by Z'-LYTE assay
# [15] = molecular target: BDNF/NT-3 growth factors receptor (Homo sapiens, UniProt Q16620); test: Inhibition of recombinant human His-tagged NTRK2 cytoplasmic domain (526 to 838 residues) expressed in baculovirus expression system using tyrosine-01 peptide as substrate incubated for 60 mins in presence of ATP by Z'-LYTE assay
# [16] = molecular target: Dual specificity tyrosine-phosphorylation-regulated kinase 1A (Homo sapiens, UniProt Q13627); test: Inhibition of recombinant full length human GST-tagged DYRK1A expressed in baculovirus expression system using serine/threonine-18 peptide as substrate incubated for 60 mins in presence of ATP by Z'-LYTE assay
# [17] = molecular target: Macrophage-stimulating protein receptor (Homo sapiens, UniProt Q04912); test: Inhibition of recombinant human GST-tagged RON catalytic domain (983 to 1400 residues) expressed in baculovirus expression system using tyrosine-6 peptide as substrate incubated for 60 mins in presence of ATP by Z'-LYTE assay
# Sequence of Macrophage-stimulating protein receptor (Q04912 25-304 limits assumed): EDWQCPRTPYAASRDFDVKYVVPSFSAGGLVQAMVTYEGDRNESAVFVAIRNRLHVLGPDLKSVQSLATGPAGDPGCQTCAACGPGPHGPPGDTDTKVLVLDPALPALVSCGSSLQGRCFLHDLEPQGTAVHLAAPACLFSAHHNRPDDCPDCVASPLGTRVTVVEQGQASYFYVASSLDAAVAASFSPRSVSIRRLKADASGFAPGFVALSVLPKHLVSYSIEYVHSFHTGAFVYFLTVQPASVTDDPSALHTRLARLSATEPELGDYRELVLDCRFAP
# Sequence of Macrophage-stimulating protein receptor (Q04912 310-1400 limits assumed): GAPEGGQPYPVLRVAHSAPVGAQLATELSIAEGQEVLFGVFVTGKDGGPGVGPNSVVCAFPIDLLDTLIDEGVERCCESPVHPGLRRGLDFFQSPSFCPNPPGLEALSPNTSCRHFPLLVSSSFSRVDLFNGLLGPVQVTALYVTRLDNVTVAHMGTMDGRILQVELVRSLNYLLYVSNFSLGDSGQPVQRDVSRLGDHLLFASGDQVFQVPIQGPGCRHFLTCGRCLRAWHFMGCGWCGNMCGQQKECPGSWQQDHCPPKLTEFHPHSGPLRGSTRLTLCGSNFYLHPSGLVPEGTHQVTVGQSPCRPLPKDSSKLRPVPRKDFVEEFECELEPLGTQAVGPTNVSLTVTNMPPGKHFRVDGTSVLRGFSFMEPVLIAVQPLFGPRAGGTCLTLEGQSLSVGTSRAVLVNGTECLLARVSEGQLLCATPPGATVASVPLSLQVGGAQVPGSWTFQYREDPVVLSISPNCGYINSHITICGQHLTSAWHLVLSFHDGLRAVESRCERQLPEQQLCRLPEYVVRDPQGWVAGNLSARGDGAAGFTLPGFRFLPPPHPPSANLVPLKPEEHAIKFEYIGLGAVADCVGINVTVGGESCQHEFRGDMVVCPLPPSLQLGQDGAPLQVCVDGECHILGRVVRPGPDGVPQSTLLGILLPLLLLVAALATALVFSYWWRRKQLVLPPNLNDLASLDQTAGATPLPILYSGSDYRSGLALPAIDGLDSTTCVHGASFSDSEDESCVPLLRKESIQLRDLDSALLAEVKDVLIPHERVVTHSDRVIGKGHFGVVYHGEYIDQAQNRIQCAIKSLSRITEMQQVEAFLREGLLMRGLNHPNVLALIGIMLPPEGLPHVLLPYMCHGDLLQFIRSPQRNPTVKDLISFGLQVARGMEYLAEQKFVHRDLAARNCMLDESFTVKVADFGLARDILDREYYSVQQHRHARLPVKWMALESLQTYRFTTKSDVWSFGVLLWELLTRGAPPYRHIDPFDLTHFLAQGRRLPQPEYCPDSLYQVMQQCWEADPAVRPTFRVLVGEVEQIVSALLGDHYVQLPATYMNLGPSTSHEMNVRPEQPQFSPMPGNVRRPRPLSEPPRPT
# [18] = molecular target: Tyrosine-protein kinase ABL1 (Homo sapiens, UniProt P00519, Y253F); test: Inhibition of recombinant full length human His-tagged ABL1 Y253F mutant cytoplasmic domain expressed in baculovirus expression system using tyrosine-2 peptide as substrate incubated for 60 mins in presence of ATP by Z'-LYTE assay
# [19] = molecular target: Calcium/calmodulin-dependent protein kinase type II subunit alpha (Homo sapiens, UniProt Q9UQM7); test: Inhibition of recombinant full length human His-tagged CAMK2alpha expressed in baculovirus expression system using serine/threonine-4 peptide as substrate incubated for 60 mins in presence of ATP by Z'-LYTE assay
# Sequence of Calcium/calmodulin-dependent protein kinase type II subunit alpha (Q9UQM7 whole entry, the tested form may be a part): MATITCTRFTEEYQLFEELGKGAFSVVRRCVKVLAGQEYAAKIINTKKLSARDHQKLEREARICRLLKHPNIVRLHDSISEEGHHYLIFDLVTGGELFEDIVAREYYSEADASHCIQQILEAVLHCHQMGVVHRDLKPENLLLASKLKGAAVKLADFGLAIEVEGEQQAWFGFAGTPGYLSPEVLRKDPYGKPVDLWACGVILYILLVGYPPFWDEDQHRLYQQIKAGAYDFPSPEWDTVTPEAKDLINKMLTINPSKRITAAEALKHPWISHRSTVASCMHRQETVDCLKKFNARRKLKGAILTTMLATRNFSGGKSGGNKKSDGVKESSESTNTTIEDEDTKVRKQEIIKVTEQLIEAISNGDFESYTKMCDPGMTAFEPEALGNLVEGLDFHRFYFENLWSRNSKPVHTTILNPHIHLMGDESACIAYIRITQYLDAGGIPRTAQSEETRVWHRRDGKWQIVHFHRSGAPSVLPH
# [20] = molecular target: Insulin receptor-related protein (Homo sapiens, UniProt P14616); test: Inhibition of recombinant human GST-tagged INSRR cytoplasmic domain expressed in baculovirus expression system using tyrosine-1 peptide as substrate incubated for 60 mins in presence of ATP by Z'-LYTE assay
# [21] = molecular target: Serine/threonine-protein kinase 3 (Homo sapiens, UniProt Q13188); test: Inhibition of recombinant full length human GST-tagged MST2 expressed in baculovirus expression system using serine/threonine-7 peptide as substrate incubated for 60 mins in presence of ATP by Z'-LYTE assay
# [22] = molecular target: Muscle, skeletal receptor tyrosine-protein kinase (Homo sapiens, UniProt O15146); test: Inhibition of recombinant human GST-tagged MUSK cytoplasmic domain (519 to 869 residues) expressed in baculovirus expression system using tyrosine-4 peptide as substrate incubated for 60 mins in presence of ATP by Z'-LYTE assay
# Sequence of Muscle, skeletal receptor tyrosine-protein kinase (O15146 whole entry, the tested form may be a part): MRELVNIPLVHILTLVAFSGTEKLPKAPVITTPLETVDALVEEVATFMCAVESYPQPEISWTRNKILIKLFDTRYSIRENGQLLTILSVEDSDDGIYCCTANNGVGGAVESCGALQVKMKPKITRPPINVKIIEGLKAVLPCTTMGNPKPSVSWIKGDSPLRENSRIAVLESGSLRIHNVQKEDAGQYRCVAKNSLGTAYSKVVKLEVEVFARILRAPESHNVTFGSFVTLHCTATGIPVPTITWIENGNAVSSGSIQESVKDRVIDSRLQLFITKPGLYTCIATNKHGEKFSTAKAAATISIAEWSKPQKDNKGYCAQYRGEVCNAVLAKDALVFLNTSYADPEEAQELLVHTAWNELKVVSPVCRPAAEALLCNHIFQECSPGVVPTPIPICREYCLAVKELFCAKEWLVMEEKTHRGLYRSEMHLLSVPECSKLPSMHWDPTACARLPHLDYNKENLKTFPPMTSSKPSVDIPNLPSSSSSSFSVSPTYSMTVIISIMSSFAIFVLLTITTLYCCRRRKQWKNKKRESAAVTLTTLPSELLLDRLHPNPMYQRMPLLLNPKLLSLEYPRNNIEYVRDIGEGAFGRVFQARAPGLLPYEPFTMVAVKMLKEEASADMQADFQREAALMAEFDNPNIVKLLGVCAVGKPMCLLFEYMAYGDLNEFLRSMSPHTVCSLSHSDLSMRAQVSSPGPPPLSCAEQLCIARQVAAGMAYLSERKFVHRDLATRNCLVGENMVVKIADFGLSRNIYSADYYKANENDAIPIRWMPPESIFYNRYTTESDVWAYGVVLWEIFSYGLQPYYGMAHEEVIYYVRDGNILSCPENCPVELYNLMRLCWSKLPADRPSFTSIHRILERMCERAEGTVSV
# [23] = molecular target: Prostacyclin receptor (Homo sapiens) (UniProt P43119); test: Inhibition of human prostanoid IP receptor at 10 uM relative to control
# Sequence of Prostacyclin receptor (Homo sapiens) (P43119 whole entry): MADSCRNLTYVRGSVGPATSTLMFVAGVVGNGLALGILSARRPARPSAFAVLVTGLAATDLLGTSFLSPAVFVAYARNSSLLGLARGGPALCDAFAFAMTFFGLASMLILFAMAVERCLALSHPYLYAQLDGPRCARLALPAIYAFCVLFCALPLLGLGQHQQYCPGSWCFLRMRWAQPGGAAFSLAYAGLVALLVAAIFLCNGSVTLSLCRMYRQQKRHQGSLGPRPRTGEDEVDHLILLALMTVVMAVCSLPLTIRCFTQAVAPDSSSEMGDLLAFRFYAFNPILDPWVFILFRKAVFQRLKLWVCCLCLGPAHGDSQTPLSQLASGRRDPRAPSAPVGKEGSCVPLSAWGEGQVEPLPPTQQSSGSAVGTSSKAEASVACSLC
compound,measurement,setting,value
C[C@@H]1C[C@H]1C(=O)N1CCN(c2cnc(C#N)c(-c3cnn(C)c3)n2)C[C@H]1C,inhibition,[1],1%
same,IC50,AMPK alpha2/beta1/gamma1,> 100 µM
same,IC50,[2],> 100 µM
same,inhibition,[3],-1%
same,IC50,[4],> 100 µM
same,IC50,[5],> 100 µM
same,inhibition,[6],-1%
same,IC50,[7],> 100 µM
same,IC50,[8],> 100 µM
same,IC50,[9],> 100 µM
same,inhibition,[10],8%
same,inhibition,[11],5%
same,CL free,[12],37 mL/min/kg
same,IC50,Misshapen-like kinase 1,25.6 µM
same,IC50,[13],> 100 µM
same,IC50,[14],> 100 µM
same,IC50,[15],> 100 µM
same,IC50,[16],> 100 µM
same,IC50,[17],> 100 µM
same,IC50,[18],> 100 µM
same,IC50,[19],> 100 µM
same,IC50,[20],> 100 µM
same,IC50,[21],> 100 µM
same,IC50,[22],> 100 µM
same,inhibition,[23],-1%

# Source: ChEMBL document CHEMBL4602617, “Discovery and optimization of heteroaryl piperazines as potent and selective PI3Kδ inhibitors” (Bioorg Med Chem Lett, 2020)
